These results are taken from patent publication US8865894B2, “Oxazolidin-2-one compounds and uses thereof” (Novartis AG, priority 2012, dated 2014).

In one test the target is T1, mTOR (Mus musculus, UniProt Q9JLN9).
T1 construct: endogenous in cells; host or cells: TSC1-/- MEF (mouse embryo fibroblasts)
Briefly: Cellular assay mTOR (phospho-T389 S6K1 SureFire in TSC1-/- MEF cells). The class given is cell-based. The text has this:
A cell based assay (384-well format) was developed for determination of compound effects on cellular mTOR kinase activity in MEF (mouse embryo fibroblasts) cells derived from mice lacking TSC1 (Tuberosclerosis Complex1) a potent suppressor of mTOR kinase activity. Due to lack of TSC1 the mTOR kinase is constitutively activated resulting in permanent phosphorylation of Thr 389 of S6 kinase 1 (S6K1) which is one of the downstream targets of mTOR.
Using a SureFire Kit that enables to determine the phosphorylation of Thr389 on the S6K1 an assay was developed, validated and implemented in the Alpha-Screen format that allows the quantitative determination of phospho-T389 of S6K1 in cell lysates. […] These were in agreement with those values obtained with the biochemical mTOR ATP-binding assay enabling a quantitative comparison of potency of mTOR inhibitors.
TSC1−/− MEFs cells (Kwiatkowski, D. J., Zhang, H., Bandura, J. L., Heiberger, K. M., Glogauer, M., el-Hashemite, N., and Onda, H. (2002) Hum. Mol. Genet. 11, 525-534) were cultured in DMEM high glucose medium supplemented with 10% FBS (Invitrogen), 2 mM Glutamine and 1% (w/v) Penicillin/Streptomycin at 37° C., 5% CO2.
The SureFire kit for determination of P70S6kinase phosphorylation was purchased from Perkin Elmer (p70S6K p-T389, #TGR70S50K) and the assay was performed according to the instructions of the supplier and according to the generic method for SureFire assays. Shortly, 5 μL cell lysate per well were transferred to 384-well white proxy-plates (for luminescent readout) and mixed with […] and […] (final volume: 12 μL). After 3 h incubation in the dark at RT luminescence was read with the Envision Reader (Perkin Elmer). Untreated cells were used as control (high control) and cells treated with 3 μM BEZ235 were used as low control. The assay window between the signals obtained for the high and the low controls were defined as 100% and compound effects were expressed as percent inhibition. IC50 values were calculated from the dose response curves by graphical extrapolation.

Another test concerns the target T2, human PI3Kα (Homo sapiens, UniProt P42336).
T2 construct: made in house
Nature of the test: Biochemical PI3Kalpha (KinaseGlo luminescent kinase assay). The method, then: Test compounds were dissolved in DMSO (10 mM) and transferred into 1.4 mL flat bottom or V-shaped Matrix tubes carrying a unique 2D matrix chip by individual Novartis compound hubs. The numbers of these chips were distinctively linked to Novartis Pharma Numbers. The stock solutions were stored at −20° C. if not used immediately. For the test procedure the vials were defrosted and identified by a scanner whereby a working sheet was generated that guided the subsequent working steps.
Compounds were either manually diluted in DMSO for individual experiments (96 wells enabling 10 cpds at 8 (single points) concentrations) as described in or prepared as described below if tested for profiling in 384-wells. This format enabled the assay of maximally 40 individual test compounds at 8 concentrations (single points) including 4 reference compounds. The dilution protocol included the production of “pre-dilution plates”, “master plates” and “assay plates”.
96 polypropylene well plates were used as pre-dilution plates. A total of 4 pre-dilution plates were prepared including 10 test compounds each on the plate positions A1-A10, one standard compound at A11 and one DMSO control at A12. Programs have been written to run these pipetting steps on the HamiltonSTAR robots.
Identical “assay plates” were then prepared by pipetting 50 nL each of compound dilutions of the “master plates” into 384-well “assay plates”. The compounds were mixed with 4.5 μL of assays components plus 4.5 μL enzyme corresponding to a 1:181 dilution enabling the final concentration of 10, 3.0, 1.0, 0.3, 0.1, 0.03, 0.01 and 0.003 μM, respectively. The preparation of the “master plates” was handled by the Matrix PlateMate Plus robot and replication of “assay plates” by the HummingBird robot.
Catalytically active human PI3Kα, PI3Kβ, PI3Kδ, and mTOR were cloned, expressed and purified as described (Maira S M, Stauffer F, Brueggen J, Furet P, Schnell C, Fritsch C, Brachmann S, Chène P, de Pover A, Schoemaker K, Fabbro D, Gabriel D, Simonen M, Murphy L, Finan P, Sellers W, García-Echeverría C (2008), Mol Cancer Ther. 7:1851-63 and Maira S M, Pecchi S, Brueggen J, Huh K, Schnell C, Fritsch C, Nagel T, Wiesmann M, Brachmann S, Dorsch M, Chène P, Schoemaker K, De Pover A, Menezes D, Fabbro D, Sellers W, García-Echeverría C, Voliva C F (2011), Mol. Cancer Ther. accepted).
The luminescence-based ATP detection reagent KinaseGlo was obtained from Promega, (Cat. No. V6714, Lot No. 236161) through Catalys, Wallisellen, Switzerland. (L-alpha-phosphatidylinositol (PI), Liver, Bovine) were obtained from Avanti Polar Lipid (Cat. No. 840042C, Lot#LPI-274), Phosphatidylinositol-4,5-bisphosphate (PIP(4,5)2 (Avanti, Cat. No. 840046×) or L-α-phosphatidylinositol (PI) was obtained from Avanti Polar Lipid (Cat. No. 840042C, Lot#LPI-274). L-α-Phosphatidylserine (PS) was from Avanti Polar Lipid (Cat. No. 840032C), n-OctylGlucoside Avanti Polar Lipid (Cat. No. 10634425001). Luminescence is a well established readout to determine ATP concentrations and can thus be used to follow the activity of many kinases regardless of their substrate. The Kinase Glo Luminescent Kinase Assay (Promega, Madison/Wis., USA) is a homogeneous HTS method of measuring kinase activity by quantifying the amount of ATP remaining in solution following a kinase reaction.
50 nL of compound dilutions were dispensed onto black 384-well low volume Non Binding Styrene (NBS) plates (Costar Cat. No. NBS#3676) as described in section 8.2. L-α-phosphatidylinositol (PI), provided as 10 mg/ml solution in methanol, was transferred into a glass tube and dried under nitrogen beam. It was then resuspended in 3% OctylGlucoside by vortexing and stored at 4° C. 5 μL of a mix of PI/OG with the PI3Ka and Pi3Kb subtypes were added. Kinase reactions were started by addition of 5 μl of ATP-mix containing in a final volume 10 μL 10 mM TRIS-HCl pH 7.5, 3 mM MgCl2, 50 mM NaCl, 0.05% CHAPS, 1 mM DTT and 1 μM ATP, and occurred at room temperature.
On the technique in general: Kinase-Glo measures the ATP left after a reaction by luminescence.

[1] abbreviates: TSC1-/- MEF cells, read-out: mTOR S6K(T389)_TSC1ko/ IC50.
The mark [2] stands for this setting: biochemical, 1 μM ATP, mean of n measurements.
Where [3] appears, read: biochemical, 1 μM ATP, mean of n measurements, read-out: PI3Ka/ IC50.
Setting [4] is: second value / 3 of the 4 values / 3 of the 5 values as per footnote, read-out: mTOR S6K(T389)_TSC1ko IC50, further individual values (footnotes).

Read-outs that look alike come from different tables or passages of the source.

T2 sequence (P42336 with tags, fused parts or gaps limits assumed): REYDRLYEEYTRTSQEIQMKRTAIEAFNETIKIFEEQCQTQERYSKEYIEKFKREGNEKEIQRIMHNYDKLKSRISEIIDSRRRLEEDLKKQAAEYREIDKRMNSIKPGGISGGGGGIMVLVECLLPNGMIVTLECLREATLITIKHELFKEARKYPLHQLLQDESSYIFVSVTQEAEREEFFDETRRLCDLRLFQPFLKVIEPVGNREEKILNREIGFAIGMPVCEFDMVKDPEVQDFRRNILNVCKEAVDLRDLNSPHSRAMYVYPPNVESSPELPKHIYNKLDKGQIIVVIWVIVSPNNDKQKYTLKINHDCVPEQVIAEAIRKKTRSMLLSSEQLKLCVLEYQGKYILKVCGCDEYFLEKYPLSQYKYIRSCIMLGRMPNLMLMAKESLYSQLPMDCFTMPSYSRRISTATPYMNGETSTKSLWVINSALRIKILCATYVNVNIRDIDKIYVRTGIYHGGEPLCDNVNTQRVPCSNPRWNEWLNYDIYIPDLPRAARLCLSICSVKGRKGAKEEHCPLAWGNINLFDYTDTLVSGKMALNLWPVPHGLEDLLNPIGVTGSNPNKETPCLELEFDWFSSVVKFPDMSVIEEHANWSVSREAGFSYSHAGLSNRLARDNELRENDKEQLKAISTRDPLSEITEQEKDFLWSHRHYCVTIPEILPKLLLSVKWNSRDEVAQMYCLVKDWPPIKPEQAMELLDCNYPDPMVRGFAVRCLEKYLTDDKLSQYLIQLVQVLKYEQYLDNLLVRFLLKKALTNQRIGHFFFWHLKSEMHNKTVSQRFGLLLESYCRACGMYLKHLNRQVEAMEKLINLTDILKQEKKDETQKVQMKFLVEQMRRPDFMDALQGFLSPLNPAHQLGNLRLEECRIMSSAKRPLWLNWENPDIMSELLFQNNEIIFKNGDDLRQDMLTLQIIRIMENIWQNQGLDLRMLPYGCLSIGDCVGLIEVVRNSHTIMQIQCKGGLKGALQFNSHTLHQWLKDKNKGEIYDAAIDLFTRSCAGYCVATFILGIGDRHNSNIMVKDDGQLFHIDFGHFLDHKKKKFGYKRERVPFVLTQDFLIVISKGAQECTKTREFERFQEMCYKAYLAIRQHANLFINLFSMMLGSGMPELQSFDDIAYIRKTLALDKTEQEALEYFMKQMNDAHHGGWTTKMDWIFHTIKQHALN

As to `C[C@H]1CN(c2cc(-c3cnc(N)nc3C(F)(F)F)nc(N3CCOCC3)n2)C(=O)O1` [Example 16, (S)-3-(2′-Amino-2-morpholin-4-yl-4′-trifluoromethyl-[4,5′]bipyrimidinyl-6-yl)-5-methyl-oxazolidin-2-one], on mTOR (setting [1]), the IC50 turned out to be 942 nM. The “PI3Ka/ IC50” value at human PI3Kα (setting [2]) is 0.030 umol I-1.

With `C[C@H]1[C@@H](CCO)OC(=O)N1c1cc(-c2cnc(N)nc2C(F)(F)F)nc(N2CCOCC2)n1` [Example 23, (4S,5R)-3-(2′-Amino-2-morpholino-4′-(trifluoromethyl)-[4,5′-bipyrimidin]-6-yl)-5-(2-hydroxyethyl)-4-methyloxazolidin-2-one], on mTOR (setting [1]), the IC50 was 1110 nM. The “PI3Ka/ IC50” value on human PI3Kα (setting [2]) worked out at 0.006 umol I-1.

For `Nc1ncc(-c2cc(N3C[C@@H](CO)OC3=O)nc(N3CCOCC3)n2)c(C(F)(F)F)n1` [Example 14, (S)-3-(2′-Amino-2-morpholin-4-yl-4′-trifluoromethyl-[4,5′]bipyrimidinyl-6-yl)-5-hydroxymethyl-oxazolidin-2-one], the IC50 on mTOR (setting [1]) was more than 2270 nM. On human PI3Kα (setting [2]), the “PI3Ka/ IC50” value is 0.057 umol I-1.

Turning to `C[C@H]1C(CC(C)(C)O)OC(=O)N1c1cc(-c2cnc(N)nc2C(F)(F)F)nc(N2CCOCC2)n1` (mixture of isomers) [Example 26, (4S,5R)- and (4S,5S)-3-(2′-amino-2-morpholino-4′-(trifluoromethyl)-[4,5′-bipyrimidin]-6-yl)-5-(2-hydroxy-2-methylpropyl)-4-methyloxazolidin-2-one], the IC50 at mTOR (setting [1]) was 857 nM; on human PI3Kα (a different, separate measurement, read-out: PI3Ka IC50, different, separate measurement (footnote)) it was less than 3 nM; on human PI3Kα (setting [3]) it was 5 nM.

Regarding `C[C@H]1COC(=O)N1c1cc(-c2cnc(N)nc2C(F)(F)F)nc(N2CCOCC2)n1` [Example 1, (S)-3-(2′-Amino-2-morpholin-4-yl-4′-trifluoromethyl-[4,5′]bipyrimidinyl-6-yl)-4-methyl-oxazolidin-2-one], on mTOR (setting [1]), the IC50 amounted to 964 nM. Also, the “PI3Ka/ IC50” value on human PI3Kα (setting [2]) was 0.008 umol I-1.

Turning to `[2H]C1([2H])OC([2H])([2H])C([2H])([2H])N(c2nc(-c3cnc(N)nc3C(F)(F)F)cc(N3C(=O)OC[C@@H]3C)n2)C1([2H])[2H]` [Example 17, (S)-3-(2′-amino-2-D8-morpholino-4′-(trifluoromethyl)-[4,5′-bipyrimidin]-6-yl)-4-methyloxazolidin-2-one], the IC50 on mTOR (setting [1]) stood at 867 nM. In addition, the “PI3Ka/ IC50” value at human PI3Kα (setting [2]) worked out at 0.017 umol I-1.

Consider `C[C@@H](O)C[C@H]1OC(=O)N(c2cc(-c3cnc(N)nc3C(F)(F)F)nc(N3CCOCC3)n2)[C@H]1C` (single isomer, unassigned) [Example 24], for which the IC50 stood at 1830 nM on mTOR (setting [1]) and 5 nM on human PI3Kα (setting [3]).

Take `Nc1ncc(-c2cc(N3CCOC3=O)nc(N3CCOCC3)n2)c(C(F)(F)F)n1` [Example 11, 3-(2′-Amino-2-morpholin-4-yl-4′-trifluoromethyl-[4,5′]bipyrimidinyl-6-yl)-oxazolidin-2-one, reference compound]: the results for the IC50 on mTOR (setting [1]) and at mTOR (setting [4]) were 1410 nM and more than 2270 nM, respectively. Further, on human PI3Kα (setting [2]), the “PI3Ka/ IC50” value amounted to 0.038 umol I-1.

Turning to `C[C@H]1COCCN1c1nc(-c2cnc(N)nc2C(F)(F)F)cc(N2C(=O)OC[C@@H]2C)n1` [Example 13, (S)-3-[2′-Amino-2-((S)-3-methyl-morpholin-4-yl)-4′-trifluoromethyl-[4,5′]bipyrimidinyl-6-yl]-4-methyl-oxazolidin-2-one], the IC50 on mTOR (setting [1]) came to 1950 nM. Besides, the “PI3Ka/ IC50” value at human PI3Kα (setting [2]) was determined as 0.203 umol I-1.

Consider `C[C@H]1[C@H](CO)OC(=O)N1c1cc(-c2cnc(N)nc2C(F)(F)F)nc(N2CCOCC2)n1` [Example 15, (4S,5R)-3-(2′-Amino-2-morpholin-4-yl-4′-trifluoromethyl-[4,5′]bipyrimidinyl-6-yl)-5-hydroxymethyl-4-methyl-oxazolidin-2-one], for which the IC50 on mTOR (setting [1]) was 727 nM; at mTOR (setting [4]) it was more than 2270 nM. Moreover, the “PI3Ka/ IC50” value at human PI3Kα (setting [2]) was determined as 0.026 umol I-1.

With `CC1(CO)COC(=O)N1c1cc(-c2cnc(N)nc2C(F)(F)F)nc(N2CCOCC2)n1` (racemic) [Example 3, 3-(2′-amino-2-morpholino-4′-(trifluoromethyl)-4,5′-bipyrimidin-6-yl)-4-(hydroxymethyl)-4-methyloxazolidin-2-one], the IC50 on mTOR (setting [1]) was 759 nM. Moreover, on human PI3Kα (setting [2]), the “PI3Ka/ IC50” value is on record as 0.021 umol I-1.

`CC1(C)OC(=O)N(c2cc(-c3cnc(N)nc3C(F)(F)F)nc(N3CCOCC3)n2)[C@H]1CO` [Example 2, (S)-3-(2′-Amino-2-morpholin-4-yl-4′-trifluoromethyl-[4,5′]bipyrimidinyl-6-yl)-4-hydroxymethyl-5,5-dimethyl-oxazolidin-2-one]: the “PI3Ka/ IC50” value at human PI3Kα (setting [2]) worked out at 0.023 umol I-1.

Turning to `Nc1ncc(-c2cc(N3C(=O)OC[C@@H]3CCO)nc(N3CCOCC3)n2)c(C(F)(F)F)n1` [Example 9, (S)-3-(2′-Amino-2-morpholin-4-yl-4′-trifluoromethyl-[4,5′]bipyrimidinyl-6-yl)-4-(2-hydroxy-ethyl)-oxazolidin-2-one], the values for the IC50 at mTOR (setting [1]) and on mTOR (setting [4]) were 1260 nM and more than 2270 nM, respectively. Also, the “PI3Ka/ IC50” value on human PI3Kα (setting [2]) was 0.384 umol I-1.

Take `Nc1ncc(-c2cc(N3C(=O)O[C@H]4CCCC[C@@H]43)nc(N3CCOCC3)n2)c(C(F)(F)F)n1` [Example 4, (3aS,7aS)-3-(2′-Amino-2-morpholin-4-yl-4′-trifluoromethyl-[4,5′]bipyrimidinyl-6-yl)-hexahydro-benzooxazol-2-one]: the IC50 at mTOR (setting [1]) was 647 nM. Besides, the “PI3Ka/ IC50” value on human PI3Kα (setting [2]) is on record as 0.014 umol I-1.
